Like-named read-outs stand apart in the source and are kept apart here.
Tests used:
Format in all cases: cell-based, Caligus rogercresseyi
CrGluCl-C = settings: for maximal current: CrGluCl-C, saturating concentration of agonist; for nH (ivermectin) / EC50: CrGluCl-C alone; for EC50: irreversible activation
Experimental: (§1) Adult female Xenopus laevis frogs were anaesthetized by immersion in a1g/L solution tricaine (Ethyl 3-aminobenzoate methanesulfonate, Sigma) buffered to pH 7 with NaHCO3. Surgery was performed 30–40 min later, once the frog was completely anaesthetized judging by loss of reflexes. Ovarian lobes were removed through 1 cm abdominal incision and then kept at 16°C in Barth’s modified solution containing (in mM): 88 NaCl, 1 KCl, 0.4 CaCl2, 0.3 Ca (NO3)2, 0.8 MgSO4, 2.4 NaHCO3, 5 Hepes, 2.5 sodium pyruvate, 100 μg/ml gentamicin sulfate, 100 U/ml penicillin, 100 μg/ml streptomycin, 250 μg/ml amphotericin B, 0.22μm filtered and adjusted to pH 7.5 with Tris-Base. Osmolarity was brought to 220 mOsm with saccharose. The oocytes were manually defolliculated on the same day of extraction and the following day 20 ng cRNA in nuclease-free water was injected into stage V-VI oocytes using a FemtoJet microinjector (Eppendorf). Finally, the injected oocytes were stored in 96 well plates containing Barth’s modified solution and kept at 16°C until experiment day.
(§2) Current measurements at controlled membrane potentials (voltage-clamp experiments) were performed using two intracellular microelectrodes in defolliculated Xenopus oocytes previously microinjected with 20 ng of cRNA. Voltage-clamp recording was performed at room temperature using a TURBO TEC-10CX amplifier (npi electronic GmbH, Tamm, Germany) and PClamp 10.6 software (Axon Instruments, USA), 1 to 4 days after oocyte injection. The oocytes were recorded in a chamber (Model RC-1Z, Warner Instrumenst, USA) under continuous superfusion. […] Reference was an Ag-AgCl electrode connected to the bath via a 3 M KCl in 3% agar bridge. Currents were recorded continuously during the experiments without interruptions for solution changes. Oocytes were held at -30 mV and a voltage protocol consisting of a voltage drop to -100 mV for 25ms followed by a 360 ms ramp from -100 mV to 60mV applied with a period of 565 ms was continuously given. The signal filtered at 1 kHz was acquired with a Digidata 1440A Analog-to-Digital Converter and analyzed with Axon pClamp 10.6 software. The solution that bathed the oocytes during the electrophysiological recordings had the following composition (mM): 115 NaCl, 2 KCl, 1.8 CaCl2, 1 MgCl2, 10 HEPES pH 7.5 obtained with NaOH. For the low chloride solution, all the NaCl was replaced with the gluconate salt of Na. This decreases chloride concentration from 122.6 to 7.6 mM while increasing that of gluconate from 0 to 115 mM. The stock solutions of the drugs in dimethyl sulfoxide (DMSO) were: 10 mM emamectin, 10 mM ivermectin, 100 mM picrotoxin. These were diluted in bath solution to obtain final concentrations.
(§3) The currents were normalized according to the extrapolated maximum current delivered by the Hill adjustment. In this way, the concentration that generates 50% of the maximum effect (EC50) and the Hill coefficient (nH) for each situation were obtained.

CrGluCl-D = CrGluCl-D spontaneous current
Experimental: as §1, §2, §3

[1] = system: coexpressed CrGluCl-C:CrGluCl-A; assay: Voltage-clamp of oocytes coinjected with CrGluCl-C and CrGluCl-A
Experimental: as §1
(§4) Current measurements at controlled membrane potentials (voltage-clamp experiments) were performed using two intracellular microelectrodes in defolliculated Xenopus oocytes previously microinjected with 20 ng of cRNA. Voltage-clamp recording was performed at room temperature using a TURBO TEC-10CX amplifier (npi electronic GmbH, Tamm, Germany) and PClamp 10.6 software (Axon Instruments, USA), 1 to 4 days after oocyte injection. The oocytes were recorded in a chamber (Model RC-1Z, Warner Instrumenst, USA) under continuous superfusion. […] Reference was an Ag-AgCl electrode connected to the bath via a 3 M KCl in 3% agar bridge. Currents were recorded continuously during the experiments without interruptions for solution changes. […] The signal filtered at 1 kHz was acquired with a Digidata 1440A Analog-to-Digital Converter and analyzed with Axon pClamp 10.6 software. […]

[2] = system: coexpressed CrGluCl-E:CrGluCl-B; assay: Voltage-clamp of oocytes coexpressing CrGluCl-E and CrGluCl-B; settings: for Iver response to activation: B:E ratio 1:1, 1μM ivermectin
Experimental: as §1, §4

[3] = system: CrGluCl-B-Q279E-Y361F-Q327T triple mutant; assay: Voltage-clamp of oocytes expressing CrGluCl-B triple mutant
Description: To identify putative GluCl subunits, we queried the NCBI Transcriptome Shotgun Assembly Sequence (TSA) Database for “glutamate-gated chloride channel Caligus”. The obtained sequences were translated and BLASTed (tBLASTn) against the C. rogercresseyi genome (WGS, BioProject ID 280098, NCBI) and against transcripts of L. salmonis database (https://licebase.org/). Primers for each of the putative new subunit found were designed to span the full length of the open reading frame (ORF) for each of them (B-E) (S1 Table, and arrows in Fig 1). Complete cDNAs were generated by RT-PCR from adult C. rogercresseyi samples from which putative full-length peptide sequences of CrGluCl-B, CrGluCl-C, CrGluCl-D and CrGluCl-E were obtained. Each PCR product was cloned in pGEM-T easy vector and sequenced. To express the clones in Xenopus laevis oocytes, ORF of CrGluCl-B, -C, -D and -E were cloned in pGH19 vector from pGEM-Teasy/CrGluCl using the following restriction enzymes: BamHI and XbaI (-B) and EcoRI (-D and -E). CrGluCl-C was cloned first in pCR3.1 vector with NotI and then into pGH19 with SpeI/XbaI. The CrGluCl/pGH19 plasmid were linearized with NheI (-A and -B) or XhoI (-C, -D, -E) and used as template for the synthesis of capped cRNA (complementary RNA) using the mMessage Machine T7 kit. Mutations were made by site-directed mutagenesis using the QuickChange method and confirmed by sequencing. […]
(§5) Current measurements at controlled membrane potentials (voltage-clamp experiments) were performed using two intracellular microelectrodes in defolliculated Xenopus oocytes previously microinjected with 20 ng of cRNA. […] The oocytes were recorded in a chamber (Model RC-1Z, Warner Instrumenst, USA) under continuous superfusion. […] Currents were recorded continuously during the experiments without interruptions for solution changes. […] The signal filtered at 1 kHz was acquired with a Digidata 1440A Analog-to-Digital Converter and analyzed with Axon pClamp 10.6 software. […]

[4] = system: CrGluCl-B Q279E-Y361F mutant; assay: Voltage-clamp of oocytes expressing CrGluCl-B Q279E-Y361F double mutant; settings: 1 μM ivermectin, one-sample t-test
Description: To identify putative GluCl subunits, we queried the NCBI Transcriptome Shotgun Assembly Sequence (TSA) Database for “glutamate-gated chloride channel Caligus”. The obtained sequences were translated and BLASTed (tBLASTn) against the C. rogercresseyi genome (WGS, BioProject ID 280098, NCBI) and against transcripts of L. salmonis database (https://licebase.org/). Primers for each of the putative new subunit found were designed to span the full length of the open reading frame (ORF) for each of them (B-E) (S1 Table, and arrows in Fig 1). Complete cDNAs were generated by RT-PCR from adult C. rogercresseyi samples from which putative full-length peptide sequences of CrGluCl-B, CrGluCl-C, CrGluCl-D and CrGluCl-E were obtained. Each PCR product was cloned in pGEM-T easy vector and sequenced. […]
as §5

Question: Which results are given for `N[C@@H](CCC(=O)O)C(=O)O` [glutamate, L-glutamate]?
Answer: maximal current (CrGluCl-C): 3.5 ± 1.7 μA; direct activating effect (CrGluCl-D): lack a direct activating effect; EC50 ([1]; C:A 1:1, 60 mV, single Hill equation): 7.9 ± 0.9 µM; EC50 ([2]; B:E ratio 1:1, 60 mV): 534 ± 239 µM; EC50 ([3]; read-out: EC50 glutamate): 103 ± 133 µM

Question: Which “nH (ivermectin)” value (CrGluCl-C) does the source give for ivermectin here?
Answer: 2.1

Question: What about the EC50 (CrGluCl-C; listed as Ivermectin) of the same compound?
Answer: 31 ± 14 nM

Question: And the EC50 (CrGluCl-C; read-out: EC50 Ivermectin)?
Answer: 31.1 ± 14.4 nM

Question: And the “nH (ivermectin)” value (CrGluCl-C; listed as Ivermectin)?
Answer: 2.1 ± 0.67

Question: And the maximal current (CrGluCl-C)?
Answer: 3.7 ± 1.3 μA

Question: What about the direct activating effect (CrGluCl-D) of the same compound?
Answer: lack a direct activating effect

Question: What about the “Iver response to activation” value ([1]; C:A 1:1, 60mV) of the same compound?
Answer: Sensitive

Question: And the “Iver response to activation” value ([1]; C:A 1:1, -80mV)?
Answer: Sensitive

Question: And the “Iver response to activation” value [2]?
Answer: without any activating effect

Question: What about the “Iver response to activation” value ([2]; listed as Iver) of the same compound?
Answer: Insensitive

Question: And the “nH (ivermectin)” value [3]?
Answer: 1.6 ± 0.22

Question: What about the EC50 ([3]; read-out: EC50 ivermectin) of the same compound?
Answer: 0.094 ± 0.054 µM

Question: What about the “effect of ivermectin on current” value [4] of the same compound?
Answer: small but significant effects

Source: paper PMC10038264, “A new family of glutamate-gated chloride channels in parasitic sea louse Caligus rogercresseyi: A subunit refractory to activation by ivermectin is dominant in heteromeric assemblies” (PLOS Pathogens, 2023)
